Assay: Amounts of β-lactam antibiotic, β-lactamase inhibitor and aminoglycoside antibiotic in solution over time (reverse-phase LC/HPLC)
Format: physicochemical
Method: The amounts of β-lactam antibiotics and β-lactamase inhibitor were determined using C18 reverse-phase LC and UV-VIS detector (Tianjin […] Co., Ltd., analysis method No. HM-K-03). The content of aminoglycoside antibiotics was measured using reverse-phase HPLC and evaporation-light-scattering detector (ELSD detector) (Tianjin […] Co., Ltd., analysis method No. HM-K-08). The amount of antibiotic component at each time point was expressed as a percentage with respect to the amount at the initial time. The relative amount of each antibiotic component in the composition at each time point was expressed as peak area ratio with respect to the corresponding peak area of an external standard.

[1] = in Example 8 solution from freeze-dried powder stored 7 days at 0° C., redissolved in injectable water, 0 h
[2] = in Example 8 solution from freeze-dried powder stored 7 days at 0° C., redissolved in injectable water, 1 h
[3] = in Example 8 solution from freeze-dried powder stored 7 days at 0° C., redissolved in injectable water, 2 h
[4] = in Example 8 solution from freeze-dried powder stored 7 days at 0° C., redissolved in injectable water, 4 h
[5] = in Example 8 solution from freeze-dried powder stored 7 days at 0° C., redissolved in injectable water, 6 h
[6] = in Example 8 solution from freeze-dried powder stored 7 days at 0° C., redissolved in injectable water, 8 h

CO/N=C(\C(=O)N[C@@H]1C(=O)N2C(C(=O)O)=C(CSc3nc(=O)c(=O)[nH]n3C)CS[C@H]12)c1csc(N)n1 [Ceftriaxone sodium]
amount (percentage of initial amount) (in Example 7 solution, pH 6.75, room temperature, 0 h): 97.01%
amount (percentage of initial amount) (in Example 7 solution, pH 6.75, room temperature, 1 h): 100.3%
amount (percentage of initial amount) (in Example 7 solution, pH 6.75, room temperature, 2 h): 96.40%
amount (percentage of initial amount) (in Example 7 solution, pH 6.75, room temperature, 4 h): 99.01%
amount (percentage of initial amount) (in Example 7 solution, pH 6.75, room temperature, 6 h): 98.91%
amount (percentage of initial amount) (in Example 7 solution, pH 6.75, room temperature, 8 h): 99.53%
amount (percentage of initial amount) [1]: 98.75%
amount (percentage of initial amount) [2]: 100.1%
amount (percentage of initial amount) [3]: 99.97%
amount (percentage of initial amount) [4]: 98.87%
amount (percentage of initial amount) [5]: 99.27%
amount (percentage of initial amount) [6]: 100.5%
amount (percentage of initial amount) (in Example 9 solution from freeze-dried powder stored 7 days at 0° C., redissolved in injectable water, 0 h): 92.24%
amount (percentage of initial amount) (in Example 9 solution from freeze-dried powder stored 7 days at 0° C., redissolved in injectable water, 1 h): 96.28%
amount (percentage of initial amount) (in Example 9 solution from freeze-dried powder stored 7 days at 0° C., redissolved in injectable water, 2 h): 94.97%
amount (percentage of initial amount) (in Example 9 solution from freeze-dried powder stored 7 days at 0° C., redissolved in injectable water, 4 h): 94.20%
amount (percentage of initial amount) (in Example 9 solution from freeze-dried powder stored 7 days at 0° C., redissolved in injectable water, 6 h): 97.91%
amount (percentage of initial amount) (in Example 9 solution from freeze-dried powder stored 7 days at 0° C., redissolved in injectable water, 8 h): 93.23%
amount (percentage of initial amount) (in Example 24 solution, pH 6.75, room temperature, 0 h): 110.2%
amount (percentage of initial amount) (in Example 24 solution, pH 6.75, room temperature, 1 h): 117.6%
amount (percentage of initial amount) (in Example 24 solution, pH 6.75, room temperature, 2 h): 119.4%
amount (percentage of initial amount) (in Example 24 solution, pH 6.75, room temperature, 4 h): 111.5%
amount (percentage of initial amount) (in Example 24 solution, pH 6.75, room temperature, 6 h): 113.4%
amount (percentage of initial amount) (in Example 24 solution, pH 6.75, room temperature, 8 h): 120.0%

CO/N=C(\C(=O)N[C@@H]1C(=O)N2C(C(=O)O)=C(CSc3nc(C)c(CC(=O)O)s3)CS[C@H]12)c1csc(N)n1 [Cefodizime sodium]
amount (percentage of initial amount) (in Example 10 solution, pH 6.5, room temperature, 0 h): 92.06%
amount (percentage of initial amount) (in Example 10 solution, pH 6.5, room temperature, 1 h): 99.84%
amount (percentage of initial amount) (in Example 10 solution, pH 6.5, room temperature, 2 h): 99.73%
amount (percentage of initial amount) (in Example 10 solution, pH 6.5, room temperature, 4 h): 98.64%
amount (percentage of initial amount) (in Example 10 solution, pH 6.5, room temperature, 6 h): 94.27%
amount (percentage of initial amount) (in Example 10 solution, pH 6.5, room temperature, 8 h): 96.48%
amount (percentage of initial amount) (in Example 25 solution, pH 6.75, room temperature, 0 h): 100.9%
amount (percentage of initial amount) (in Example 25 solution, pH 6.75, room temperature, 1 h): 104.6%
amount (percentage of initial amount) (in Example 25 solution, pH 6.75, room temperature, 2 h): 100.1%
amount (percentage of initial amount) (in Example 25 solution, pH 6.75, room temperature, 4 h): 81.34%
amount (percentage of initial amount) (in Example 25 solution, pH 6.75, room temperature, 6 h): 103.7%
amount (percentage of initial amount) (in Example 25 solution, pH 6.75, room temperature, 8 h): 102.2%

C[C@]1(Cn2ccnn2)[C@H](C(=O)O)N2C(=O)C[C@H]2S1(=O)=O [Tazobactam sodium]
amount (percentage of initial amount) [1]: 102.2%
amount (percentage of initial amount) [2]: 97.53%
amount (percentage of initial amount) [3]: 94.16%
amount (percentage of initial amount) [4]: 94.58%
amount (percentage of initial amount) [5]: 95.45%
amount (percentage of initial amount) [6]: 94.44%
amount (percentage of initial amount) (in Example 16 solution, pH 6.5, room temperature, 0 h): 98.77%
amount (percentage of initial amount) (in Example 16 solution, pH 6.5, room temperature, 1 h): 108.2%
amount (percentage of initial amount) (in Example 16 solution, pH 6.5, room temperature, 2 h): 110.8%
amount (percentage of initial amount) (in Example 16 solution, pH 6.5, room temperature, 4 h): 97.39%
amount (percentage of initial amount) (in Example 16 solution, pH 6.5, room temperature, 6 h): 106.3%
amount (percentage of initial amount) (in Example 16 solution, pH 6.5, room temperature, 8 h): 106.3%
amount (percentage of initial amount) (in Example 21 solution, pH 6.75, room temperature (22° C.), 0 h): 93.36%
amount (percentage of initial amount) (in Example 21 solution, pH 6.75, room temperature (22° C.), 1 h): 104.8%
amount (percentage of initial amount) (in Example 21 solution, pH 6.75, room temperature (22° C.), 2 h): 100.0%
amount (percentage of initial amount) (in Example 21 solution, pH 6.75, room temperature (22° C.), 4 h): 96.58%
amount (percentage of initial amount) (in Example 21 solution, pH 6.75, room temperature (22° C.), 6 h): 106.1%
amount (percentage of initial amount) (in Example 21 solution, pH 6.75, room temperature (22° C.), 8 h): 107.1%

CC1(C)S[C@@H]2[C@H](NC(=O)[C@H](NC(=O)N3CCNC3=O)c3ccccc3)C(=O)N2[C@H]1C(=O)O [Azlocillin sodium]
amount (percentage of initial amount) (in Example 22 solution (2.5% fructose), pH 6.0, room temperature, 0 h): 92.40%
amount (percentage of initial amount) (in Example 22 solution (2.5% fructose), pH 6.0, room temperature, 1 h): 98.91%
amount (percentage of initial amount) (in Example 22 solution (2.5% fructose), pH 6.0, room temperature, 2 h): 104.0%
amount (percentage of initial amount) (in Example 22 solution (2.5% fructose), pH 6.0, room temperature, 4 h): 98.91%
amount (percentage of initial amount) (in Example 22 solution (2.5% fructose), pH 6.0, room temperature, 6 h): 99.03%
amount (percentage of initial amount) (in Example 22 solution (2.5% fructose), pH 6.0, room temperature, 8 h): 85.02%
